# Measurements from US11401555B2, “Genetic polymorphisms associated with stroke, methods of detection and uses thereof” (CELERA CORPORATION, priority 2008, dated 2022).
# Experiment: Stroke statin response (SSR) in the PROSPER pravastatin trial: pravastatin-treated versus placebo-treated, by SNP genotype
# Format: in vivo, human
# Text: (hCV26505812) for association with SSR in CARE (Table 37) and PROSPER (Table 38), including both unadjusted and adjusted analyses (adjusted for factors such as age, gender, smoking status, hypertension, diabetes, BMI, and LDL and HDL levels). Table 37 provides results in CARE, and Table 38 provides results in PROSPER (whether each analysis is unadjusted or adjusted is indicated in the “adjust” column in Table 37, or by “unadj” and “adj” column labels in Tables 38). With respect to Tables 22-32 and 37-38, the columns labeled “Genotype” (in Tables 22-28 and 37), “Geno_Placebo” (in Tables 29-30 and 38), and “Geno_Resp” (in Tables 31-32 and 38) indicate the genotype which the given stroke risk or SSR results correspond to. […] In Tables 29-32 and 38, the columns labeled “LOWER_PLACEBO” and “UPPER_PLACEBO” (Tables 29-30 and 38), and “LOWER_RESP” and “UPPER_RESP” (Tables 31-32 and 38), refer to the lower and upper 95% confidence intervals for the hazard ratios. See Example Six below for further information relating to Tables 22-32 and 37-38. […] As used herein, the term “benefit” (with respect to a preventive or therapeutic drug treatment) is defined as achieving a reduced risk for a disease that the drug is intended to treat or prevent (e.g., stroke) by administrating the drug treatment, compared with the risk for the disease in the absence of receiving the drug treatment (or receiving a placebo in lieu of the drug treatment) for the same genotype. The term “benefit” may be used herein interchangeably with terms such as “respond positively” or “positively respond”. For stroke risk and statin response associations based on samples from the CARE and PROSPER trials described herein, stroke risk is assessed by comparing the risk of stroke for a given genotype with the risk of stroke for a reference genotype either in the placebo arm of the trial or in the whole study population of the trial, and statin response is assessed by comparing the risk of stroke in the pravastatin arm of the trial with the risk of stroke in the placebo arm of the trial for the same genotype. […] Example Five above describes the analysis of these 61 SNPs plus 17 additional SNPs in the German West Study. […] In PROSPER, SNPs were analyzed for association with stroke risk or SSR, in the whole study cohort (strata: “ALL”), or in the subgroup with a history of CVD (strata: “hist”) or without a CVD history (strata: “no hist”). […] Also in the CARE and PROSPER trials, the chromosome 9p21 SNP […] (hCV26505812) was analyzed further for association with SSR, including unadjusted and adjusted analysis. Adjusted analysis in CARE (Table 37) was adjusted for age, gender, smoking status, hypertension, diabetes, body mass index (BMI), and LDL and HDL levels, and adjusted analysis in PROSPER (Table 38) was adjusted for country, gender, age, LDL, HDL, smoking status (current vs. past or never), history of hypertension, and diabetes. Table 37 provides results in CARE, and Table 38 provides results in PROSPER (whether each analysis is unadjusted or adjusted is indicated in the “adjust” column in Table 37, or by “unadj” and “adj” column labels in Tables 38). All the p-values (including Pint values) provided in Tables 37-38 are two-sided p-values.
# [1] = hCV2169762 rs1804689 HPS1, GENO_RESP GG, MODE GEN, STRATA no hist
# [2] = hCV2169762 rs1804689 HPS1, GENO_RESP GT, MODE GEN, STRATA hist
# [3] = hCV2169762 rs1804689 HPS1, GENO_RESP GT, MODE GEN, STRATA no hist
# [4] = hCV2169762 rs1804689 HPS1, GENO_RESP TT, MODE GEN, STRATA no hist
# [5] = hCV2442143 rs12544854 ASAH1, GENO_RESP CC + CT, MODE REC, STRATA no hist
# [6] = hCV2442143 rs12544854 ASAH1, GENO_RESP TT + CT, MODE DOM, STRATA hist
# [7] = hCV26505812 rs10757274 C9p21, GENO_RESP AA, MODE GEN, STRATA ALL
# [8] = hCV26505812 rs10757274 C9p21, GENO_RESP AA, MODE GEN, STRATA no hist
# [9] = hCV26505812 rs10757274 C9p21, GENO_RESP AG, MODE GEN, STRATA ALL
# [10] = hCV26505812 rs10757274 C9p21, GENO_RESP AG, MODE GEN, STRATA no hist
# [11] = hCV26505812 rs10757274 C9p21, GENO_RESP GG + AG, MODE DOM, STRATA ALL
# [12] = hCV26505812 rs10757274 C9p21, GENO_RESP GG + AG, MODE DOM, STRATA no hist
# [13] = hCV26505812 rs10757274 C9p21, GENO_RESP GG, MODE GEN, STRATA ALL
# [14] = hCV26505812 rs10757274 C9p21, GENO_RESP GG, MODE GEN, STRATA no hist
# [15] = hCV27511436 rs3750145 FZD1, GENO_RESP CC + CT, MODE DOM, STRATA no hist
# [16] = hCV27511436 rs3750145 FZD1, GENO_RESP CC, MODE GEN, STRATA no hist
# [17] = hCV27511436 rs3750145 FZD1, GENO_RESP CT, MODE GEN, STRATA no hist
# [18] = hCV27511436 rs3750145 FZD1, GENO_RESP TT, MODE GEN, STRATA no hist
# [19] = hCV27830265 rs12762303 ALOX5, GENO_RESP GG + AG, MODE DOM, STRATA no hist
# [20] = hCV29539757 rs10110659 KCNQ3, GENO_RESP AA, MODE GEN, STRATA hist
# [21] = hCV29539757 rs10110659 KCNQ3, GENO_RESP AC, MODE GEN, STRATA hist
# [22] = hCV29539757 rs10110659 KCNQ3, GENO_RESP CC, MODE GEN, STRATA hist
compound,measurement,setting,value
CC[C@H](C)C(=O)O[C@H]1C[C@H](O)C=C2C=C[C@H](C)[C@H](CC[C@@H](O)C[C@@H](O)CC(=O)O)[C@H]21 [pravastatin],"HR_RESP (hazard ratio, pravastatin-treated versus placebo-treated)","hCV2169762 rs1804689 HPS1, GENO_RESP GG, MODE GEN, STRATA hist",1.104
same,EVENTS_RESP,[1],30
same,"HR_RESP (hazard ratio, pravastatin-treated versus placebo-treated)",[1],0.659
same,EVENTS_RESP,[2],47
same,"HR_RESP (hazard ratio, pravastatin-treated versus placebo-treated)",[2],0.9425
same,EVENTS_RESP,[3],47
same,"HR_RESP (hazard ratio, pravastatin-treated versus placebo-treated)",[3],1.268
same,EVENTS_RESP,"hCV2169762 rs1804689 HPS1, GENO_RESP TT + GT, MODE DOM, STRATA no hist",57
same,"HR_RESP (hazard ratio, pravastatin-treated versus placebo-treated)","hCV2169762 rs1804689 HPS1, GENO_RESP TT, MODE GEN, STRATA hist",0.3365
same,EVENTS_RESP,[4],10
same,"HR_RESP (hazard ratio, pravastatin-treated versus placebo-treated)",[4],1.275
same,EVENTS_RESP,[5],72
same,"HR_RESP (hazard ratio, pravastatin-treated versus placebo-treated)",[5],1.087
same,EVENTS_RESP,[6],88
same,"HR_RESP (hazard ratio, pravastatin-treated versus placebo-treated)",[6],1.043
same,EVENTS_RESP,[7],56
same,"HR_RESP (hazard ratio, pravastatin-treated versus placebo-treated)",[7],1.33
same,EVENTS_RESP,[8],28
same,"HR_RESP (hazard ratio, pravastatin-treated versus placebo-treated)",[8],1.57
same,EVENTS_RESP,[9],94
same,"HR_RESP (hazard ratio, pravastatin-treated versus placebo-treated)",[9],0.7769
same,EVENTS_RESP,[10],35
same,"HR_RESP (hazard ratio, pravastatin-treated versus placebo-treated)",[10],0.6977
same,EVENTS_RESP,[11],145
same,"HR_RESP (hazard ratio, pravastatin-treated versus placebo-treated)",[11],0.8638
same,EVENTS_RESP,[12],59
same,"HR_RESP (hazard ratio, pravastatin-treated versus placebo-treated)",[12],0.8132
same,EVENTS_RESP,[13],51
same,"HR_RESP (hazard ratio, pravastatin-treated versus placebo-treated)",[13],1.082
same,EVENTS_RESP,[14],24
same,"HR_RESP (hazard ratio, pravastatin-treated versus placebo-treated)",[14],1.068
same,EVENTS_RESP,[15],27
same,"HR_RESP (hazard ratio, pravastatin-treated versus placebo-treated)",[15],1.388
same,EVENTS_RESP,[16],1
same,"HR_RESP (hazard ratio, pravastatin-treated versus placebo-treated)",[16],0.3492
same,EVENTS_RESP,[17],26
same,"HR_RESP (hazard ratio, pravastatin-treated versus placebo-treated)",[17],1.575
same,EVENTS_RESP,[18],60
same,"HR_RESP (hazard ratio, pravastatin-treated versus placebo-treated)",[18],0.8524
same,EVENTS_RESP,[19],25
same,"HR_RESP (hazard ratio, pravastatin-treated versus placebo-treated)",[19],1.479
same,EVENTS_RESP,[20],7
same,"HR_RESP (hazard ratio, pravastatin-treated versus placebo-treated)",[20],0.4115
same,EVENTS_RESP,[21],44
same,"HR_RESP (hazard ratio, pravastatin-treated versus placebo-treated)",[21],0.9946
same,EVENTS_RESP,"hCV29539757 rs10110659 KCNQ3, GENO_RESP CC + AC, MODE REC, STRATA hist",106
same,EVENTS_RESP,[22],62
same,"HR_RESP (hazard ratio, pravastatin-treated versus placebo-treated)",[22],1.016
